Laboratory results: PubChem BioAssay (NCI)
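These data come from cells grown in 96-well plates and exposed to compound for 48 hours at five concentrations. Abbreviation: GI50, concentration required for 50% inhibition of growth. The concentration for full growth arrest is given as TGI.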

Assays:
Assay in all cases: NCI tumour cell line growth inhibition, 48 h
786-0 renal = tested on: 786-0 renal
A549 NSCLC = tested on: A549 NSCLC
ACHN renal = tested on: ACHN renal
BT-549 breast = tested on: BT-549 breast
CAKI-1 renal = tested on: CAKI-1 renal
CCRF-CEM leukemia = tested on: CCRF-CEM leukemia
COLO 205 colon = tested on: COLO 205 colon
DU-145 prostate = tested on: DU-145 prostate
EKVX NSCLC = tested on: EKVX NSCLC
HCC-2998 colon = tested on: HCC-2998 colon
HCT-116 colon = tested on: HCT-116 colon
HCT-15 colon = tested on: HCT-15 colon
HL-60(TB) leukemia = tested on: HL-60(TB) leukemia
HOP-62 NSCLC = tested on: HOP-62 NSCLC
HOP-92 NSCLC = tested on: HOP-92 NSCLC
HT29 colon = tested on: HT29 colon
IGROV1 ovarian = tested on: IGROV1 ovarian
K-562 leukemia = tested on: K-562 leukemia
KM12 colon = tested on: KM12 colon
M14 melanoma = tested on: M14 melanoma
MALME-3M melanoma = tested on: MALME-3M melanoma
MCF7 breast = tested on: MCF7 breast
MDA-N = tested on: MDA-N
MOLT-4 leukemia = tested on: MOLT-4 leukemia
NCI-H226 lung = tested on: NCI-H226 lung
NCI-H23 lung = tested on: NCI-H23 lung
NCI-H460 lung = tested on: NCI-H460 lung
NCI-H522 lung = tested on: NCI-H522 lung
NCI/ADR-RES ovarian = tested on: NCI/ADR-RES ovarian
OVCAR-3 ovarian = tested on: OVCAR-3 ovarian
OVCAR-4 ovarian = tested on: OVCAR-4 ovarian
OVCAR-5 ovarian = tested on: OVCAR-5 ovarian
OVCAR-8 ovarian = tested on: OVCAR-8 ovarian
PC-3 prostate = tested on: PC-3 prostate
RPMI-8226 leukemia = tested on: RPMI-8226 leukemia
RXF 393 renal = tested on: RXF 393 renal
SF-268 CNS = tested on: SF-268 CNS
SF-295 CNS = tested on: SF-295 CNS
SF-539 CNS = tested on: SF-539 CNS
SK-MEL-2 melanoma = tested on: SK-MEL-2 melanoma
SK-MEL-28 melanoma = tested on: SK-MEL-28 melanoma
SK-MEL-5 melanoma = tested on: SK-MEL-5 melanoma
SK-OV-3 ovarian = tested on: SK-OV-3 ovarian
SN12C renal = tested on: SN12C renal
SNB-19 CNS = tested on: SNB-19 CNS
SNB-75 CNS = tested on: SNB-75 CNS
SR leukemia = tested on: SR leukemia
SW-620 colon = tested on: SW-620 colon
TK-10 renal = tested on: TK-10 renal
U251 CNS = tested on: U251 CNS
UACC-257 melanoma = tested on: UACC-257 melanoma
UACC-62 melanoma = tested on: UACC-62 melanoma
UO-31 renal = tested on: UO-31 renal
A498 renal = tested on: A498 renal
HS 578T breast = tested on: HS 578T breast
LOX IMVI melanoma = tested on: LOX IMVI melanoma
MDA-MB-231 breast = tested on: MDA-MB-231 breast
MDA-MB-435 = tested on: MDA-MB-435
T-47D breast = tested on: T-47D breast

In the case of N#C/C(=C\c1cc(Br)c(O)c(Br)c1)c1ccccn1, the TGI (786-0 renal) is reported as > 100000 nM, the TGI (A549 NSCLC) is reported as > 100000 nM and the TGI (ACHN renal) is reported as > 100000 nM. The TGI (BT-549 breast) was > 100000 nM, the TGI (CAKI-1 renal) was > 100000 nM and the TGI (CCRF-CEM leukemia) was > 100000 nM. For the same compound, the TGI (COLO 205 colon) was > 100000 nM, the TGI (DU-145 prostate) was > 100000 nM and the TGI (EKVX NSCLC) was > 100000 nM. For the same compound, the TGI (HCC-2998 colon) was > 100000 nM, the TGI (HCT-116 colon) was > 100000 nM and the TGI (HCT-15 colon) was > 100000 nM. The TGI (HL-60(TB) leukemia) was > 100000 nM, the TGI (HOP-62 NSCLC) was > 100000 nM and the TGI (HOP-92 NSCLC) was 46200 nM. For the same compound, the TGI (HT29 colon) was > 100000 nM, the TGI (IGROV1 ovarian) was > 100000 nM and the TGI (K-562 leukemia) was > 100000 nM. The TGI (KM12 colon) was > 100000 nM, the TGI (M14 melanoma) was > 100000 nM and the TGI (MALME-3M melanoma) was 68300 nM. The TGI (MCF7 breast) was > 100000 nM, the TGI (MDA-N) was > 100000 nM and the TGI (MOLT-4 leukemia) was > 100000 nM. The TGI (NCI-H226 lung) was > 100000 nM, the TGI (NCI-H23 lung) was > 100000 nM and the TGI (NCI-H460 lung) was > 100000 nM. For the same compound, the TGI (NCI-H522 lung) was > 100000 nM, the TGI (NCI/ADR-RES ovarian) was > 100000 nM and the TGI (OVCAR-3 ovarian) was > 100000 nM. The TGI (OVCAR-4 ovarian) was > 100000 nM, the TGI (OVCAR-5 ovarian) was > 100000 nM and the TGI (OVCAR-8 ovarian) was > 100000 nM. For the same compound, the TGI (PC-3 prostate) was > 100000 nM, the TGI (RPMI-8226 leukemia) was > 100000 nM and the TGI (RXF 393 renal) was > 100000 nM. For the same compound, the TGI (SF-268 CNS) was > 100000 nM, the TGI (SF-295 CNS) was > 100000 nM and the TGI (SF-539 CNS) was > 100000 nM. For the same compound, the TGI (SK-MEL-2 melanoma) was > 100000 nM, the TGI (SK-MEL-28 melanoma) was > 100000 nM and the TGI (SK-MEL-5 melanoma) was > 100000 nM. For the same compound, the TGI (SK-OV-3 ovarian) was > 100000 nM, the TGI (SN12C renal) was > 100000 nM and the TGI (SNB-19 CNS) was > 100000 nM. For the same compound, the TGI (SNB-75 CNS) was > 100000 nM, the TGI (SR leukemia) was > 100000 nM and the TGI (SW-620 colon) was > 100000 nM. The TGI (TK-10 renal) was > 100000 nM, the TGI (U251 CNS) was 60000 nM and the TGI (UACC-257 melanoma) was > 100000 nM. The TGI (UACC-62 melanoma) was > 100000 nM and the TGI (UO-31 renal) was > 100000 nM.
ClC1=C(Cl)C(Cl)=C(Cl)C1=Cc1ccccc1 gave a GI50 (786-0 renal) of 1320 nM, a TGI (786-0 renal) of 3080 nM and a GI50 (A498 renal) of 1390 nM. It also gave a TGI (A498 renal) of 2780 nM, a GI50 (A549 NSCLC) of 1630 nM and a TGI (A549 NSCLC) of 4320 nM. For the same compound, the GI50 (ACHN renal) was 703 nM, the TGI (ACHN renal) was 2220 nM and the GI50 (BT-549 breast) was 1680 nM. It also gave a TGI (BT-549 breast) of 3890 nM, a GI50 (CAKI-1 renal) of 342 nM and a TGI (CAKI-1 renal) of 1130 nM. It also gave a GI50 (CCRF-CEM leukemia) of 288 nM, a TGI (CCRF-CEM leukemia) of 3570 nM and a GI50 (COLO 205 colon) of 937 nM. It also gave a TGI (COLO 205 colon) of 2650 nM, a GI50 (DU-145 prostate) of 708 nM and a TGI (DU-145 prostate) of 2830 nM. For the same compound, the GI50 (EKVX NSCLC) was 1400 nM, the TGI (EKVX NSCLC) was 3390 nM and the GI50 (HCC-2998 colon) was 1730 nM. The TGI (HCC-2998 colon) was 3140 nM, the GI50 (HCT-116 colon) was 293 nM and the TGI (HCT-116 colon) was 936 nM. For the same compound, the GI50 (HCT-15 colon) was 1220 nM, the TGI (HCT-15 colon) was 6040 nM and the GI50 (HL-60(TB) leukemia) was 595 nM. It also gave a TGI (HL-60(TB) leukemia) of 2400 nM, a GI50 (HOP-62 NSCLC) of 1640 nM and a TGI (HOP-62 NSCLC) of 3680 nM. The GI50 (HOP-92 NSCLC) was 621 nM, the TGI (HOP-92 NSCLC) was 1610 nM and the GI50 (HS 578T breast) was 915 nM. The TGI (HS 578T breast) was 10100 nM, the GI50 (HT29 colon) was 457 nM and the TGI (HT29 colon) was 2270 nM. For the same compound, the GI50 (IGROV1 ovarian) was 916 nM, the TGI (IGROV1 ovarian) was 2510 nM and the GI50 (K-562 leukemia) was 277 nM. For the same compound, the TGI (K-562 leukemia) was 3500 nM, the GI50 (KM12 colon) was 1470 nM and the TGI (KM12 colon) was 3110 nM. It also gave a GI50 (LOX IMVI melanoma) of 198 nM, a TGI (LOX IMVI melanoma) of 469 nM and a GI50 (M14 melanoma) of 495 nM. It also gave a TGI (M14 melanoma) of 2110 nM, a GI50 (MALME-3M melanoma) of 1490 nM and a TGI (MALME-3M melanoma) of 4150 nM. It also gave a GI50 (MCF7 breast) of 610 nM, a TGI (MCF7 breast) of 7020 nM and a GI50 (MDA-MB-231 breast) of 2430 nM. For the same compound, the TGI (MDA-MB-231 breast) was 10400 nM, the GI50 (MDA-MB-435) was 350 nM and the TGI (MDA-MB-435) was 1160 nM. For the same compound, the GI50 (MOLT-4 leukemia) was 314 nM, the TGI (MOLT-4 leukemia) was 1560 nM and the GI50 (NCI-H226 lung) was 1910 nM. It also gave a TGI (NCI-H226 lung) of 3860 nM, a GI50 (NCI-H23 lung) of 520 nM and a TGI (NCI-H23 lung) of 2080 nM. The GI50 (NCI-H460 lung) was 1250 nM, the TGI (NCI-H460 lung) was 4130 nM and the GI50 (NCI-H522 lung) was 189 nM. For the same compound, the TGI (NCI-H522 lung) was 459 nM, the GI50 (NCI/ADR-RES ovarian) was 287 nM and the TGI (NCI/ADR-RES ovarian) was 1160 nM. The GI50 (OVCAR-3 ovarian) was 463 nM, the TGI (OVCAR-3 ovarian) was 1620 nM and the GI50 (OVCAR-4 ovarian) was 2000 nM. The TGI (OVCAR-4 ovarian) was 6920 nM, the GI50 (OVCAR-5 ovarian) was 1650 nM and the TGI (OVCAR-5 ovarian) was 3850 nM. For the same compound, the GI50 (OVCAR-8 ovarian) was 417 nM, the TGI (OVCAR-8 ovarian) was 21000 nM and the GI50 (PC-3 prostate) was 622 nM. It also gave a TGI (PC-3 prostate) of 3700 nM, a GI50 (RPMI-8226 leukemia) of 311 nM and a TGI (RPMI-8226 leukemia) of 2300 nM. For the same compound, the GI50 (RXF 393 renal) was 920 nM, the TGI (RXF 393 renal) was 2230 nM and the GI50 (SF-268 CNS) was 753 nM. It also gave a TGI (SF-268 CNS) of 2430 nM, a GI50 (SF-295 CNS) of 1330 nM and a TGI (SF-295 CNS) of 3740 nM. It also gave a GI50 (SF-539 CNS) of 1830 nM, a TGI (SF-539 CNS) of 4200 nM and a GI50 (SK-MEL-2 melanoma) of 1380 nM. For the same compound, the TGI (SK-MEL-2 melanoma) was 2970 nM, the GI50 (SK-MEL-28 melanoma) was 1620 nM and the TGI (SK-MEL-28 melanoma) was 3270 nM. For the same compound, the GI50 (SK-MEL-5 melanoma) was 1380 nM, the TGI (SK-MEL-5 melanoma) was 2680 nM and the GI50 (SK-OV-3 ovarian) was 2000 nM. The TGI (SK-OV-3 ovarian) was 4660 nM, the GI50 (SN12C renal) was 1950 nM and the TGI (SN12C renal) was 7150 nM. For the same compound, the GI50 (SNB-19 CNS) was 1630 nM, the TGI (SNB-19 CNS) was 3580 nM and the GI50 (SNB-75 CNS) was 1460 nM. The TGI (SNB-75 CNS) was 3100 nM, the GI50 (SR leukemia) was 334 nM and the TGI (SR leukemia) was 2570 nM. For the same compound, the GI50 (SW-620 colon) was 293 nM, the TGI (SW-620 colon) was 1030 nM and the GI50 (T-47D breast) was 1150 nM. The TGI (T-47D breast) was 3560 nM, the GI50 (TK-10 renal) was 645 nM and the TGI (TK-10 renal) was 2020 nM. It also gave a GI50 (U251 CNS) of 517 nM, a TGI (U251 CNS) of 1590 nM and a GI50 (UACC-257 melanoma) of 731 nM. It also gave a TGI (UACC-257 melanoma) of 2130 nM, a GI50 (UACC-62 melanoma) of 1650 nM and a TGI (UACC-62 melanoma) of 5020 nM. It also gave a GI50 (UO-31 renal) of 527 nM and a TGI (UO-31 renal) of 1980 nM.
